Test results reported in patent publication US20250197399A1, “COMPOUNDS, COMPOSITIONS, AND METHODS” (Tenvie Therapeutics, Inc., priority 2022, published 2025).
Where two headings read alike, the source gives them in different places.

Test system: NLRP3
Assay: IL-1β secretion assay in PMA-differentiated, LPS/nigericin-stimulated THP-1 cells (ELISA)
Type: cell-based
Conditions: 25 ng/mL LPS then nigericin, IL-1β in supernatant
Protocol: Compounds as provided herein were tested in the following assay. Cell culture medium employed contained RPMI 1640 medium (89%), FBS (10%), Pen/Strep (1%), and 2-mercaptoethanol (0.05 mM). Freezing medium was made up of 90% FBS and 10% DMSO. THP-1 cells were removed from the liquid nitrogen and placed into a 37° C. water bath to thaw, until signs of ice dissipated. The cells were then added to 9 mL of warm cell culture medium and centrifuged for 5 minutes at 1000 rpm. The supernatant was discarded, and the cells were resuspended in new cell culture medium. THP-1 cells were then split and cultured in the cell culture medium, being passaged every 2-3 days with the cell density will be maintained between 5×10^5 and 1.5×10^6 viable cells/mL.
PMA was dissolved in DMSO to make a stock solution at 5 mg/ml and stored in 10 μl aliquots at −20° C. for single use. PMA is added to normal growth medium. LPS was diluted with 1 mL of water solution to provide a 1 mg/mL stock solution and stored in 15 μL aliquots at −20° C. for single use. Nigericin is diluted in ice cold 100% ethanol to 5 mg/ml (6.7 mM) and stored in 75 μL aliquots at −20° C. for single use. Serum-free media contains RPMI 1640 medium (99%), Pen/Strep (1%), and 2-mercaptoethanol (0.05 mM). The two control conditions used to qualify and normalize test compound dose-response curves were as follows: High Control=25 ng/mL LPS, […], 0.5% DMSO, Low Control=25 ng/mL, LPS, 0.5% DMSO.
THP-1 cells were diluted to provide a suspension at a concentration of 1.0×10^6 cells/mL with the total volume of suspension required to enable the desired number of assay plates. The growth media was supplemented with PMA (5 ng/mL final concentration) and the cells were incubated at 37° C. under a humidified atmosphere of 5% CO2 for 40 h.
All media was carefully aspirated from each culture flask. The cells were washed carefully with 1×DPBS. The cells were then briefly digested with trypsin LE for 5 minutes at 23° C. and immediately resuspended in cell growth media. After resuspension, the cells were centrifuged at 1000 rpm for 3 minutes and the supernatant was discarded. The cells were resuspended in DPBS and once again centrifuged at 1000 rpm for 5 minutes. The supernatant was discarded and the cell pellet was resuspended in serum-free media supplemented with LPS (25 ng/mL final concentration) to enable the distribution of 30K THP-1 cells within 45 μL of media into each well of 384-well PDL-coated plates. The 384-well plates were then incubated at 37° C. under a humidified atmosphere of 5% CO2 for 2 h. Following this period, test compounds were dispensed by Tecan across the desired concentration range with all wells normalized to a final 0.5% DMSO concentration. The plates were then then incubated at 37° C. under a humidified atmosphere of 5% CO2 for 1 h. Following this period, 5 μL of the 5 mg/mL nigericin stock solution was added to each of the appropriate wells and plates were centrifuged at 1000 rpm for 30 seconds. The plates were the immediately reintroduced to the incubator at 37° C. under a humidified atmosphere of 5% CO2 for 2 h. After this time, 35 μL/well of supernatant was collected and transferred into v-bottom plate and centrifuged at 1000 rpm for 1 minute. These supernatant aliquots were analyzed using an IL-Iβ detection kit as described below. If needed, the test samples could be snap frozen and stored at −80° C. until analyzed.
To prepare each ELISA plate, capture antibody (mAb Mt175) was diluted with PBS to a final concentration of […] and then 20 μL of this solution was added to each well of the ELISA plate. Each plate was allowed to incubate overnight at 4° C. The next day, the capture antibody solution was removed and discarded. Each ELISA plate was washed 4 times with PBST followed by the addition of 25 µL/well of blocking buffer (Licor-927-40010) supplemented with 0.1% Tween 20. Each ELISA plate was then allowed to incubate for 1 hour at 23° C. […]

[1] = THP-1 cells, read-out: Activity
[2] = THP-1 cells, read-out: Activity (IC50 class)
[3] = Homo sapiens, THP-1, THP-1 cells, read-out: Activity (IC50 class)
[4] = Homo sapiens, THP-1, THP-1 cells, read-out: Activity

Row | IC50 [1] [nM] | IC50 [2] [nM] | IC50 [3] [nM] | IC50 [4] [nM] | Structure (SMILES)
1 | 33 | < 1000 |  |  | O=C(CN1CC2(CC2(F)F)c2c(ccc(Br)c2F)C1=O)Nc1nc2ccccn2n1 (single isomer, unassigned) [Example 31, N-([1,2,4]triazolo[1,5-a]pyridin-2-yl)-2-[6-bromo-1′,1′,5-trifluoro-1-oxospiro[3H-isoquinoline-4,2′-cyclopropane]-2-yl]acetamide]
2 | 28600 | > 10000 |  |  | Cc1cnc(NC(=O)CN2CC3(CC3(F)F)c3c(ccc(Br)c3F)C2=O)nc1 (single isomer, unassigned) [Example 32, N-(5-methylpyrimidin-2-yl)-2-[6-bromo-1′,1′,5-trifluoro-1-oxospiro[3H-isoquinoline-4,2′-cyclopropane]-2-yl]acetamide]
3 | 55 | < 1000 |  |  | Cc1cnc(NC(=O)CN2CC3(CC3(F)F)c3c(ccc(Br)c3F)C2=O)nc1 (single isomer, unassigned) [Example 33, N-(5-methylpyrimidin-2-yl)-2-[6-bromo-1′,1′,5-trifluoro-1-oxospiro[3H-isoquinoline-4,2′-cyclopropane]-2-yl]acetamide]
4 | 126 |  | < 1000 |  | O=C(CN1CC2(CC2(F)F)c2cc(C(F)(F)F)ccc2C1=O)Nc1ncc(Cl)cn1 (single isomer, unassigned) [Example 38, N-(5-chloropyrimidin-2-yl)-2-[1′,1′-difluoro-6-(trifluoromethyl)-1-oxospiro[3H-isoquinoline-4,2′-cyclopropane]-2-yl]acetamide]
5 | 6960 | 1000 to 10000 |  |  | O=C(CN1CC2(CC2(F)F)c2cc(C(F)(F)F)ccc2C1=O)Nc1ncc(Cl)cn1 (single isomer, unassigned) [Example 39, N-(5-chloropyrimidin-2-yl)-2-[1′,1′-difluoro-6-(trifluoromethyl)-1-oxospiro[3H-isoquinoline-4,2′-cyclopropane]-2-yl]acetamide]
6 | 9370 |  | 1000 to 10000 |  | O=C(CN1CC2(CC2(F)F)c2cc(C(F)(F)F)ccc2C1=O)Nc1ncc(F)cn1 (single isomer, unassigned) [Example 40, N-(5-fluoropyrimidin-2-yl)-2-[1′,1′-difluoro-6-(trifluoromethyl)-1-oxospiro[3H-isoquinoline-4,2′-cyclopropane]-2-yl]acetamide]
7 |  |  | < 1000 | 113 | Cc1cnc(NC(=O)CN2C[C@]3(C[C@H]3F)c3c(ccc(Cl)c3F)C2=O)nc1 (single isomer, unassigned) [Example 44, 2-[(2′s,4r)-6-chloro-2′,5-difluoro-1-oxospiro[3H-isoquinoline-4,1′-cyclopropane]-2-yl]-N-(5-methylpyrimidin-2-yl)acetamide]
8 | 231 |  | < 1000 |  | O=C(CN1C[C@]2(C[C@H]2F)c2cc(C(F)(F)F)ccc2C1=O)Nc1ncc2cn[nH]c2n1 (single isomer, unassigned) [Example 47, 2-[(2′s,4r)-2′-fluoro-1-oxo-6-(trifluoromethyl)spiro[3H-isoquinoline-4,1′-cyclopropane]-2-yl]-N-(1H-pyrazolo[3,4-d]pyrimidin-6-yl)acetamide]

The remaining lines, values behind:

Row | Structure (SMILES) | IC50 [1] [nM] | IC50 [2] [nM] | IC50 [3] [nM] | IC50 [4] [nM]
9 | O=C(CN1CC2(CC2(F)F)c2cc(C3CC3)ccc2C1=O)Nc1ncc(F)cn1 (single isomer, unassigned) [Example 29, N-(5-fluoropyrimidin-2-yl)-2-[6-cyclopropyl-1′,1′-difluoro-1-oxospiro[3H-isoquinoline-4,2′-cyclopropane]-2-yl]acetamide] | 86 | < 1000 |  | 
10 | O=C(CN1CC2(CC2(F)F)c2c(ccc(Br)c2F)C1=O)Nc1nc2ccccn2n1 (single isomer, unassigned) [Example 30, N-([1,2,4]triazolo[1,5-a]pyridin-2-yl)-2-[6-bromo-1′,1′,5-trifluoro-1-oxospiro[3H-isoquinoline-4,2′-cyclopropane]-2-yl]acetamide] | 29200 | > 10000 |  | 
11 | O=C(CN1CC2(CC2(F)F)c2c(ccc(C3CC3)c2F)C1=O)Nc1ncc(Cl)cn1 (single isomer, unassigned) [Example 34, N-(5-chloropyrimidin-2-yl)-2-[6-cyclopropyl-1′,1′,5-trifluoro-1-oxospiro[3H-isoquinoline-4,2′-cyclopropane]-2-yl]acetamide] | 15600 |  | 1000 to 10000 | 
12 | O=C(CN1CC2(CC2(F)F)c2c(ccc(C3CC3)c2F)C1=O)Nc1ncc(Cl)cn1 (single isomer, unassigned) [Example 35, N-(5-chloropyrimidin-2-yl)-2-[6-cyclopropyl-1′,1′,5-trifluoro-1-oxospiro[3H-isoquinoline-4,2′-cyclopropane]-2-yl]acetamide] | 16 | < 1000 |  | 
13 | Cc1cnc(NC(=O)CN2CC3(CC3(F)F)c3c(ccc(C4CC4)c3F)C2=O)nc1 (single isomer, unassigned) [Example 36, N-(5-methylpyrimidin-2-yl)-2-[6-cyclopropyl-1′,1′,5-trifluoro-1-oxospiro[3H-isoquinoline-4,2′-cyclopropane]-2-yl]acetamide] | 22400 | > 10000 |  | 
14 | Cc1cnc(NC(=O)CN2CC3(CC3(F)F)c3c(ccc(C4CC4)c3F)C2=O)nc1 (single isomer, unassigned) [Example 37, N-(5-methylpyrimidin-2-yl)-2-[6-cyclopropyl-1′,1′,5-trifluoro-1-oxospiro[3H-isoquinoline-4,2′-cyclopropane]-2-yl]acetamide] | 78 | < 1000 |  | 
15 | O=C(CN1CC2(CC2(F)F)c2cc(C(F)(F)F)ccc2C1=O)Nc1ncc(F)cn1 (single isomer, unassigned) [Example 41, N-(5-fluoropyrimidin-2-yl)-2-[1′,1′-difluoro-6-(trifluoromethyl)-1-oxospiro[3H-isoquinoline-4,2′-cyclopropane]-2-yl]acetamide] | 67 | < 1000 |  | 
16 | O=C(CN1C[C@]2(C[C@H]2F)c2c(ccc(Cl)c2F)C1=O)Nc1ncc(Cl)cn1 (single isomer, unassigned) [Example 43, 2-[(2′s,4r)-6-chloro-2′,5-difluoro-1-oxospiro[3H-isoquinoline-4,1′-cyclopropane]-2-yl]-N-(5-chloropyrimidin-2-yl)acetamide] |  |  | < 1000 | 51
17 | O=C(CN1C[C@]2(C[C@H]2F)c2c(ccc(Cl)c2F)C1=O)Nc1ncc2cn[nH]c2n1 (single isomer, unassigned) [Example 45, 2-[(2′s,4r)-6-chloro-2′,5-difluoro-1-oxospiro[3H-isoquinoline-4,1′-cyclopropane]-2-yl]-N-(1H-pyrazolo[3,4-d]pyrimidin-6-yl)acetamide] |  |  | < 1000 | 48
18 | O=C(CN1C[C@]2(C[C@H]2F)c2cc(C(F)(F)F)ccc2C1=O)Nc1ncc2cn[nH]c2n1 (single isomer, unassigned) [Example 48, 2-[(2′s,4r)-2′-fluoro-1-oxo-6-(trifluoromethyl)spiro[3H-isoquinoline-4,1′-cyclopropane]-2-yl]-N-(1H-pyrazolo[3,4-d]pyrimidin-6-yl)acetamide] | 24 | < 1000 |  | 
